The subject of this assay is MV-4-11 cells. The assay can be described thus: Gene expression microarray analysis (Affymetrix PrimeView) and GSEA. Details: RFU PODN (11730768_x_at) / Fold change /veh PODN (11730768_x_at) / RFU LINC00158 (11744669_a_at) / Fold change /veh LINC00158 (11744669_a_at) / RFU DUSP10 (11751237_a_at) / Fold change /veh DUSP10 (11751237_a_at) / RFU ID3 (11757404_x_at) / Fold change /veh ID3 (11757404_x_at) / RFU PLEKHG5 (11737974_s_at) / Fold change /veh PLEKHG5 (11737974_s_at) / RFU LRRC4B (11730491_at) / Fold change /veh LRRC4B (11730491_at) / RFU GIMAP4 (11747438_a_at) / Fold change /veh GIMAP4 (11747438_a_at) / RFU KRT8 (11758183_x_at) / Fold change /veh KRT8 (11758183_x_at) / RFU CNN1 (11734310_a_at) / Fold change /veh CNN1 (11734310_a_at) / RFU VPS37D (11726825_at) / Fold change /veh VPS37D (11726825_at) / RFU C10orf10 (11716522_x_at) / Fold change /veh C10orf10 (11716522_x_at) / RFU KIR2DL2 /// KIR2DL4 /// KIR2DL5A /// KIR2DL5B /// KIR2DS1 /// KIR2DS2 /// KIR2DS3 /// KIR2DS4 /// KIR3DL3 /// KIR3DL3 /// KIR3DS1 (11738374_at) / Fold change /veh KIR2DL2 /// KIR2DL4 /// KIR2DL5A /// KIR2DL5B /// KIR2DS1 /// KIR2DS2 /// KIR2DS3 /// KIR2DS4 /// KIR3DL3 /// KIR3DL3 /// KIR3DS1 (11738374_at) / RFU C1QL1 (11718748_at) / Fold change /veh C1QL1 (11718748_at) / RFU TMPRSS4 (11747572_a_at) / Fold change /veh TMPRSS4 (11747572_a_at) / RFU HAMP (11756126_x_at) / Fold change /veh HAMP (11756126_x_at) / RFU RNFT2 (11725882_a_at) / Fold change /veh RNFT2 (11725882_a_at) / RFU NR4A2 (11747474_a_at) / Fold change /veh NR4A2 (11747474_a_at) / RFU ABCC12 (11746883_a_at) / Fold change /veh ABCC12 (11746883_a_at) / RFU TMEM136 (11760407_x_at) / Fold change /veh TMEM136 (11760407_x_at) / RFU CLDN22 /// WWC2 (11732394_at) / Fold change /veh CLDN22 /// WWC2 (11732394_at) / RFU HLA-DPB1 (11760878_x_at) / Fold change /veh HLA-DPB1 (11760878_x_at) / RFU SPINT1 (11716480_a_at) / Fold change /veh SPINT1 (11716480_a_at) / RFU GAP43 (11754022_s_at) / Fold change /veh GAP43 (11754022_s_at) / RFU A4GNT (11735810_at) / Fold change /veh A4GNT (11735810_at) / RFU PRB3 (11715151_x_at) / Fold change /veh PRB3 (11715151_x_at) / RFU TUBB4B (11761932_at) / Fold change /veh TUBB4B (11761932_at) / RFU CAPN14 (11732068_a_at) / Fold change /veh CAPN14 (11732068_a_at) / RFU TMCC2 (11721928_a_at) / Fold change /veh TMCC2 (11721928_a_at) / RFU IRGQ (11745062_a_at) / Fold change /veh IRGQ (11745062_a_at) / RFU FAM174B (11720279_a_at) / Fold change /veh FAM174B (11720279_a_at) / RFU TMPRSS4 (11748680_a_at) / Fold change /veh TMPRSS4 (11748680_a_at) / RFU FAM212B (11763350_a_at) / Fold change /veh FAM212B (11763350_a_at) / RFU PLEKHG5 (11743358_a_at) / Fold change /veh PLEKHG5 (11743358_a_at) / RFU ZSCAN30 (11745921_a_at) / Fold change /veh ZSCAN30 (11745921_a_at) / RFU CMKLR1 (11741424_a_at) / Fold change /veh CMKLR1 (11741424_a_at) / RFU LOC101060620 /// MAPK8IP1 (11723275_at) / Fold change /veh LOC101060620 /// MAPK8IP1 (11723275_at) / RFU SPTSSB (11747773_x_at) / Fold change /veh SPTSSB (11747773_x_at) / RFU PRSS12 (11739890_at) / Fold change /veh PRSS12 (11739890_at) / RFU BIN1 (11741810_x_at) / Fold change /veh BIN1 (11741810_x_at) / RFU WNT11 (11732464_a_at) / Fold change /veh WNT11 (11732464_a_at) / RFU C10orf10 (11716521_a_at) / Fold change /veh C10orf10 (11716521_a_at) / RFU C5orf56 (11738089_at) / Fold change /veh C5orf56 (11738089_at) / RFU CYB561 (11721691_x_at) / Fold change /veh CYB561 (11721691_x_at) / RFU ANKRD19P (11752326_a_at) / Fold change /veh ANKRD19P (11752326_a_at) / RFU OR2T12 /// OR2T33 /// OR2T8 (11738714_s_at) / Fold change /veh OR2T12 /// OR2T33 /// OR2T8 (11738714_s_at) / RFU VCAN (11748164_a_at) / Fold change /veh VCAN (11748164_a_at) / RFU JSRP1 (11732532_at) / Fold change /veh JSRP1 (11732532_at) / RFU KRTAP10-11 (11738290_x_at) / Fold change /veh KRTAP10-11 (11738290_x_at) / RFU MYO3A (11730013_a_at) / Fold change /veh MYO3A (11730013_a_at) / RFU EBF3 (11725865_a_at) / Fold change /veh EBF3 (11725865_a_at) / RFU CAMK2N1 (11719241_x_at) / Fold change /veh CAMK2N1 (11719241_x_at) / RFU C5orf56 (11738088_a_at) / Fold change /veh C5orf56 (11738088_a_at) / RFU OLFML3 (11715873_a_at) / Fold change /veh OLFML3 (11715873_a_at) / RFU LOC100653217 /// NTM (11731650_a_at) / Fold change /veh LOC100653217 /// NTM (11731650_a_at) / RFU MAPK11 (11762145_a_at) / Fold change /veh MAPK11 (11762145_a_at) / RFU FIZ1 (11724087_x_at) / Fold change /veh FIZ1 (11724087_x_at) / RFU OASL (11726364_x_at) / Fold change /veh OASL (11726364_x_at) / RFU SOX15 (11748057_x_at) / Fold change /veh SOX15 (11748057_x_at) / RFU CD79A (11719716_a_at) / Fold change /veh CD79A (11719716_a_at) / RFU HIST1H1D (11736915_at) / Fold change /veh HIST1H1D (11736915_at) / RFU CASKIN2 (11723855_a_at) / Fold change /veh CASKIN2 (11723855_a_at) / RFU LOC730098 (11760151_x_at) / Fold change /veh LOC730098 (11760151_x_at) / RFU OR4N2 (11742367_at) / Fold change /veh OR4N2 (11742367_at) / RFU PRRT2 (11749266_a_at) / Fold change /veh PRRT2 (11749266_a_at) / RFU SNX32 (11753110_a_at) / Fold change /veh SNX32 (11753110_a_at) / RFU CDHR5 (11726645_a_at) / Fold change /veh CDHR5 (11726645_a_at) / RFU RCAN1 (11760418_a_at) / Fold change /veh RCAN1 (11760418_a_at) / RFU FAM167A (11723789_a_at) / Fold change /veh FAM167A (11723789_a_at) / RFU FAM26E (11764081_at) / Fold change /veh FAM26E (11764081_at) / RFU ISYNA1 (11749810_s_at) / Fold change /veh ISYNA1 (11749810_s_at) / RFU ACY1 (11761880_at) / Fold change /veh ACY1 (11761880_at) / RFU 11764098_at / Fold change /veh 11764098_at / RFU SAMD14 (11745864_x_at) / Fold change /veh SAMD14 (11745864_x_at) / RFU NPB (11741838_a_at) / Fold change /veh NPB (11741838_a_at) / RFU TMPRSS6 (11731388_a_at) / Fold change /veh TMPRSS6 (11731388_a_at) / RFU KRTAP10-2 (11738614_at) / Fold change /veh KRTAP10-2 (11738614_at) / RFU ARHGAP8 /// PRR5-ARHGAP8 (11727945_x_at) / Fold change /veh ARHGAP8 /// PRR5-ARHGAP8 (11727945_x_at) / RFU KRTAP5-7 /// NADSYN1 (11734609_at) / Fold change /veh KRTAP5-7 /// NADSYN1 (11734609_at) / RFU RASL12 (11751679_a_at) / Fold change /veh RASL12 (11751679_a_at) / RFU CDKN2B (11736163_a_at) / Fold change /veh CDKN2B (11736163_a_at) / RFU PRF1 (11729649_at) / Fold change /veh PRF1 (11729649_at) / RFU, ZNF638 /// ZNF638-IT1 / Fold change vs veh, ZNF638 /// ZNF638-IT1 / RFU, PANK3 / Fold change vs veh, PANK3 / RFU, SH3YL1 / Fold change vs veh, SH3YL1 / RFU, ZEB2 / Fold change vs veh, ZEB2 / RFU, NRIP1 / Fold change vs veh, NRIP1 / RFU, PTTG1IP / Fold change vs veh, PTTG1IP / RFU, CAPN2 / Fold change vs veh, CAPN2 / RFU, MED14 / Fold change vs veh, MED14 / RFU, SNORA58 / Fold change vs veh, SNORA58 / RFU, C1orf63 / Fold change vs veh, C1orf63 / RFU, LRRFIP1 / Fold change vs veh, LRRFIP1 / RFU, NDUFAF7 / Fold change vs veh, NDUFAF7 / RFU, SLC12A2 / Fold change vs veh, SLC12A2 / RFU, IBTK / Fold change vs veh, IBTK / RFU, ESF1 / Fold change vs veh, ESF1 / Fold change vs veh, TMEM50B / RFU, TAOK1 / Fold change vs veh, TAOK1 / RFU, ACBD3 / Fold change vs veh, ACBD3 / RFU, TMA16 / Fold change vs veh, TMA16 / RFU, RWDD3 / Fold change vs veh, RWDD3 / RFU, BCAT1 / Fold change vs veh, BCAT1 / RFU, EDEM3 / Fold change vs veh, EDEM3 / RFU, TMEM33 / Fold change vs veh, TMEM33 / RFU, WDR75 / Fold change vs veh, WDR75 / RFU, AHCTF1 / Fold change vs veh, AHCTF1 / RFU, TFRC / Fold change vs veh, TFRC / RFU, ZDHHC17 / Fold change vs veh, ZDHHC17 / RFU, NOM1 / Fold change vs veh, NOM1 / RFU, ARL8B / Fold change vs veh, ARL8B / RFU, ZBTB11 / Fold change vs veh, ZBTB11 / RFU, TAMM41 / Fold change vs veh, TAMM41 / RFU, KIAA1704 /// LOC100996395 / Fold change vs veh, KIAA1704 /// LOC100996395 / RFU, ING1 / Fold change vs veh, ING1 / RFU, TRMT61B / Fold change vs veh, TRMT61B / RFU, FUBP3 / Fold change vs veh, FUBP3 / RFU, TP53 / Fold change vs veh, TP53 / RFU, TNKS2 / Fold change vs veh, TNKS2 / RFU, ZFP14 / Fold change vs veh, ZFP14 / RFU, ACTR2 / Fold change vs veh, ACTR2 / RFU, PPP3R1 / Fold change vs veh, PPP3R1 / RFU, PIK3R1 / Fold change vs veh, PIK3R1 / RFU, HNRNPA1 / Fold change vs veh, HNRNPA1 / RFU, RNF170 / Fold change vs veh, RNF170 / RFU, ZNF28 / Fold change vs veh, ZNF28 / RFU, RNGTT / Fold change vs veh, RNGTT / RFU, OGT / Fold change vs veh, OGT / RFU, BRD1 / Fold change vs veh, BRD1 / RFU, MARS / Fold change vs veh, MARS / RFU, ZNF655 / Fold change vs veh, ZNF655 / RFU, FAHD1 / Fold change vs veh, FAHD1 / RFU, BDP1 / Fold change vs veh, BDP1 / RFU, LRRCC1 / Fold change vs veh, LRRCC1 / RFU, ARID1A / Fold change vs veh, ARID1A / RFU, ZNF146 / Fold change vs veh, ZNF146 / RFU, ZNF330 / Fold change vs veh, ZNF330 / RFU, GPN3 / Fold change vs veh, GPN3 / RFU, C9orf123 / Fold change vs veh, C9orf123 / RFU, N4BP2L2 / Fold change vs veh, N4BP2L2 / RFU, ARFIP1 / Fold change vs veh, ARFIP1 / RFU, FAM179B / Fold change vs veh, FAM179B / RFU, BCL10 / Fold change vs veh, BCL10 / RFU, UHRF1BP1L / Fold change vs veh, UHRF1BP1L / RFU, BET1 / Fold change vs veh, BET1 / RFU, CNOT2 / Fold change vs veh, CNOT2 / RFU, ZNF268 / Fold change vs veh, ZNF268 / Fold change vs veh, ZNF507 / RFU, DGCR2 / Fold change vs veh, DGCR2 / RFU, WDSUB1 / Fold change vs veh, WDSUB1 / Fold change vs veh, HSP90B1 /// MIR3652 / RFU, ADSS / Fold change vs veh, ADSS / RFU, GK / Fold change vs veh, GK / RFU, ZNF148 / Fold change vs veh, ZNF148 / RFU, TAF9 / Fold change vs veh, TAF9 / RFU, SLC1A5 / Fold change vs veh, SLC1A5 / RFU, SLMO2 / Fold change vs veh, SLMO2 / RFU, ABCC4 / Fold change vs veh, ABCC4 / RFU, LOC101060439 /// RAP1B / Fold change vs veh, LOC101060439 /// RAP1B / RFU, RFX7 / Fold change vs veh, RFX7 / RFU, GTPBP10 / Fold change vs veh, GTPBP10 / RFU, CNEP1R1 / Fold change vs veh, CNEP1R1 / RFU, BIVM-ERCC5 /// ERCC5 / Fold change vs veh, BIVM-ERCC5 /// ERCC5 / RFU, ILF3 / Fold change vs veh, ILF3 / RFU 11762660_at / Fold change /veh 11762660_at / RFU VCAN (11757783_s_at) / Fold change /veh VCAN (11757783_s_at) / RFU DDX43 (11728927_at) / Fold change /veh DDX43 (11728927_at) / RFU KRT8 (11758188_x_at) / Fold change /veh KRT8 (11758188_x_at) / RFU NKD1 (11759106_at) / Fold change /veh NKD1 (11759106_at) / RFU SRD5A1 (11742802_a_at) / Fold change /veh SRD5A1 (11742802_a_at) / RFU TPSAB1 /// TPSB2 (11721975_s_at) / Fold change /veh TPSAB1 /// TPSB2 (11721975_s_at) / RFU GSTM3 (11746129_a_at) / Fold change /veh GSTM3 (11746129_a_at) / RFU IL23R (11737362_x_at) / Fold change /veh IL23R (11737362_x_at) / RFU TMEM51 (11727254_a_at) / Fold change /veh TMEM51 (11727254_a_at) / RFU PIWIL2 (11732686_x_at) / Fold change /veh PIWIL2 (11732686_x_at) / RFU ORM1 (11744905_x_at) / Fold change /veh ORM1 (11744905_x_at) / RFU CCDC152 (11743942_at) / Fold change /veh CCDC152 (11743942_at) / RFU ECM1 (11717891_a_at) / Fold change /veh ECM1 (11717891_a_at) / RFU IL23R (11748794_a_at) / Fold change /veh IL23R (11748794_a_at) / RFU TNFAIP8L3 (11732012_x_at) / Fold change /veh TNFAIP8L3 (11732012_x_at) / RFU MBOAT4 (11741988_at) / Fold change /veh MBOAT4 (11741988_at) / RFU 11764193_at / Fold change /veh 11764193_at / RFU TMEM53 (11763286_at) / Fold change /veh TMEM53 (11763286_at) / RFU MAGEB2 (11727129_at) / Fold change /veh MAGEB2 (11727129_at) / RFU TMEM200A (11744735_a_at) / Fold change /veh TMEM200A (11744735_a_at) / RFU CCDC152 (11751479_a_at) / Fold change /veh CCDC152 (11751479_a_at) / RFU FAM211A (11726209_a_at) / Fold change /veh FAM211A (11726209_a_at) / RFU RGS16 (11746705_a_at) / Fold change /veh RGS16 (11746705_a_at) / RFU VCAN (11755009_s_at) / Fold change /veh VCAN (11755009_s_at) / RFU RHOB (11743442_s_at) / Fold change /veh RHOB (11743442_s_at) / RFU RGS16 (11720943_a_at) / Fold change /veh RGS16 (11720943_a_at) / RFU RGS16 (11720944_at) / Fold change /veh RGS16 (11720944_at) / RFU, VPS4B / Fold change vs veh, VPS4B / RFU, CREB1 / Fold change vs veh, CREB1 / RFU, DNAJC13 / Fold change vs veh, DNAJC13 / RFU, GNAQ / Fold change vs veh, GNAQ / RFU, CDK5R1 / Fold change vs veh, CDK5R1 / RFU, ZRANB3 / Fold change vs veh, ZRANB3 / RFU, CUL4A / Fold change vs veh, CUL4A / RFU, CCNY / Fold change vs veh, CCNY / RFU, UFL1 / Fold change vs veh, UFL1 / RFU, COG3 / Fold change vs veh, COG3 / RFU, DIAPH2 / Fold change vs veh, DIAPH2 / RFU, SKA2 / Fold change vs veh, SKA2 / RFU, AFF3 / Fold change vs veh, AFF3 / RFU, LMF1 / Fold change vs veh, LMF1 / RFU, IPO11 / Fold change vs veh, IPO11 / RFU, DFFB / Fold change vs veh, DFFB / RFU, FOXP1 / Fold change vs veh, FOXP1 / RFU, CARD8 / Fold change vs veh, CARD8 / RFU, STRN3 / Fold change vs veh, STRN3 / RFU, ADK / Fold change vs veh, ADK / RFU, RASSF2 / Fold change vs veh, RASSF2 / RFU, WIPF1 / Fold change vs veh, WIPF1 / RFU, LARP1B / Fold change vs veh, LARP1B / RFU, RASA1 / Fold change vs veh, RASA1 / RFU, RB1 / Fold change vs veh, RB1 / RFU, PPFIA1 / Fold change vs veh, PPFIA1 / RFU, MAT2A / Fold change vs veh, MAT2A / RFU, CCT5 / Fold change vs veh, CCT5 / RFU, WDR92 / Fold change vs veh, WDR92 / RFU, CUX1 / Fold change vs veh, CUX1 / RFU, TTC7A / Fold change vs veh, TTC7A / RFU, TMEM135 / Fold change vs veh, TMEM135 / RFU, DEPTOR / Fold change vs veh, DEPTOR / RFU, CPM / Fold change vs veh, CPM / RFU, DNAJB6 / Fold change vs veh, DNAJB6 / RFU, CACNA2D3 / Fold change vs veh, CACNA2D3 / RFU, DTX4 / Fold change vs veh, DTX4 / RFU, TFCP2 / Fold change vs veh, TFCP2 / RFU, GMCL1 /// GMCL1P1 / Fold change vs veh, GMCL1 /// GMCL1P1 / RFU, AEBP2 / Fold change vs veh, AEBP2 / RFU, SNHG1 /// SNORD22 /// SNORD25 /// SNORD26 /// SNORD27 /// SNORD28 /// SNORD29 /// SNORD31 / Fold change vs veh, SNHG1 /// SNORD22 /// SNORD25 /// SNORD26 /// SNORD27 /// SNORD28 /// SNORD29 /// SNORD31 / Fold change (Aza/veh), C12orf56 (ProbeSet 11735607_a_at) / Fold change (ACY-1035/veh), C12orf56 (ProbeSet 11735607_a_at) / Fold change (Aza/veh), FGFR1OP (ProbeSet 11751329_s_at) / Fold change (ACY-1035/veh), FGFR1OP (ProbeSet 11751329_s_at) / Fold change (Aza/veh), VPS36 (ProbeSet 11739960_a_at) / Fold change (ACY-1035/veh), VPS36 (ProbeSet 11739960_a_at) / RFU SYPL1 (11715823_x_at) / Fold change /veh SYPL1 (11715823_x_at) / RFU IGFBP7 (11715501_s_at) / Fold change /veh IGFBP7 (11715501_s_at) / RFU REEP3 (11722064_at) / Fold change /veh REEP3 (11722064_at) / RFU IGLL1 (11728026_x_at) / Fold change /veh IGLL1 (11728026_x_at): dose or concentration left out as unconfirmed. Format: cell-based, human. Particulars: ProbeSet 11723141_at; LIST B.

With `Nc1ncn([C@@H]2O[C@H](CO)[C@@H](O)[C@H]2O)c(=O)n1` [azacitidine], the “Fold change vs veh, ZBTB11” value was 0.93.

The values are drawn from paper PMC5218480 (PLoS ONE, 2017).
